Where two headings read alike, the source gives them in different places.
Legend:
human leukocyte elastase = target: T1, human leukocyte elastase (Homo sapiens, UniProt P08246); assay: Inactivation kinetics of human leukocyte elastase (chromogenic substrate MeOSuc-Ala2-Pro-Val-pNA); type: biochemical; conditions: for kinact/KI / Ki/KI or kobs/[I], LHE: 25° C., pH 8.0
T1 sequence (P08246 30-247 limits assumed): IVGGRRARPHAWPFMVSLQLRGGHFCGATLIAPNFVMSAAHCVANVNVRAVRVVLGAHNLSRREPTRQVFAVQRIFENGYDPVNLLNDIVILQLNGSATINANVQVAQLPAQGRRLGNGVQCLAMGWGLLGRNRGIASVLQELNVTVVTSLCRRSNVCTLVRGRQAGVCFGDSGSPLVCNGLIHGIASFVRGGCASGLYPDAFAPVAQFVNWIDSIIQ
Procedure: (§1) The inactivating or inhibitory properties of the coumarin derivatives were tested with respect to a certain number of enzymes: human leukocyte elastase, bovine α-chymotrypsin, human thrombin and bovine trypsin. The kinetic measurements were taken at 25° C. in the following buffers: 0.1 M Hepes, 0.5 M NaCl, 0.01% Tween 80, pH 8.0 (human leukocyte elastase); 0.025 M NaH2PO4, 0.05 M KCl, pH 7.5 (α-chymotrypsin); 0.01 M Tris, 0.01 M Hepes, 0.1 M NaCl, 0.1% PEG-6000, pH 7.5 (human thrombin); 0.1 M Tris, 0.01 M CaCl2, pH 7.5 (bovine trypsin). The chromogenic substrates used to determine the activity of the enzymes are: MeOSuc-Ala2-Pro-Val-pNA (human leukocyte elastase); Suc-Ala2-Pro-Phe-pNA (α-chymotrypsin); H-D-Phe-Pip-Arg-pNA (human thrombin); N-benzoyl-Arg-pNA (bovine trypsin) (pNA: para-nitroaniline).
(§2) The interaction of a suicide substrate with a serine protease corresponds to the minimum reaction scheme described in equation 1 in which E represents the enzyme, I represents the inhibitor, E-I represents the acyl-enzyme and E-I′ represents the inactivated enzyme [Silverman R. B., 1988, “Mechanism-based enzyme inactivation: chemistry and enzymology”, volume 1 CRC Press, Boca Raton, Fla.]: [drawing 76]
(§3) When k4 is small compared to k3, equation 1 can be simplified (equation 2, [Daniels et al., 1983, J. Biol. Chem., 258: 15046-15053]): [drawing 77]
(§4) Considering the first instants of the reaction, the system reduces to a simplified equation of the form of equation 2.
(§5) The kinetic constants characterizing the inactivation of the enzymes with the coumarin derivatives were determined using either the conventional sampling method (or batchwise method) or a method placing the inhibitor and the substrate in competition (or continuous method); these methods are described by Pochet et al. [Pochet et al., 1996, J. Med. Chem., 39: 2579-2585].
(§6) The inactivation of serine proteaaes with the coumarin derivatives is thus characterized by the following constants (see Eq. 2):
(§7) KI: apparent dissociation constant of an enzyme-inhibitor complex located upstream of ki
(§8) ki: first-order rate constant for inactivation at infinite inhibitor concentration
(§9) ki/KI: index of the overall inactivating efficacy of the inhibitor.

bovine α-chymotrypsin = target: T2, bovine α-chymotrypsin (Bos taurus, UniProt P00766); assay: Inactivation kinetics of bovine α-chymotrypsin (chromogenic substrate Suc-Ala2-Pro-Phe-pNA); type: biochemical; conditions: 25° C., pH 7.5, N.I. = non-inactivator; for kinact/KI: read-out: Ki/KI or kobs/[I], α-CT
T2 construct: bovine α-chymotrypsin
Procedure: as §1, §2, §3, §4, §5, §6, §7, §8, §9

human thrombin = target: T3, human thrombin (Homo sapiens, UniProt P00734); assay: Inactivation kinetics of human thrombin (chromogenic substrate H-D-Phe-Pip-Arg-pNA); type: biochemical; conditions: 25° C., pH 7.5, N.I. = non-inactivator; for kinact/KI: read-out: Ki/KI or kobs/[I], Thrombin
T3 construct: human thrombin
Procedure: as §1, §2, §3, §4, §5, §6, §7, §8, §9

bovine trypsin = target: T4, bovine trypsin (Bos taurus, UniProt P00760); assay: Inactivation kinetics of bovine trypsin (chromogenic substrate N-benzoyl-Arg-pNA); type: biochemical; conditions: 25° C., pH 7.5, N.I. = non-inactivator
T4 sequence (P00760 24-246): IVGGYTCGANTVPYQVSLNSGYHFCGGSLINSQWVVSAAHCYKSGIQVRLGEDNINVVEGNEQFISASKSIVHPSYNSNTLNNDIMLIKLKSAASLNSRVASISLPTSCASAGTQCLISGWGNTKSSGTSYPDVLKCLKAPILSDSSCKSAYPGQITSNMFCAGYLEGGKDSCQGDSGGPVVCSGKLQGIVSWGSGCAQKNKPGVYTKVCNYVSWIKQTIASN
Procedure: as §1, §2, §3, §4, §5, §6, §7, §8, §9

[1] = TABLE 5, phenyl esters, inactivation phase, N.I. = non-inactivator, read-out: Ki/KI or kobs/[I], HLE
[2] = TABLE 5, phenyl esters, without 6-chloromethyl: inactivation phase of transient inactivation
[3] = TABLE 5, phenyl esters, inactivation phase
[4] = TABLE 3, no chloromethyl in position 6, inactivation phase of transient inactivation, read-out: Ki/KI or kobs/[I], LHE
[5] = TABLE 3, no chloromethyl in position 6
[6] = TABLE 1, 2-pyridyl esters, inactivation phase of transient inactivation, read-out: Ki/KI or kobs/[I], LHE
[7] = TABLE 1, 2-pyridyl esters, inactivation phase

SMILES | melting point | kinact/KI (human leukocyte elastase; [4]) [M⁻¹ s⁻¹] | Ki/KI or kobs/[I], α-CT (bovine α-chymotrypsin; [5]) | Ki/KI or kobs/[I], Thrombin (human thrombin; TABLE 3) | kinact/KI (human leukocyte elastase; [6]) [M⁻¹ s⁻¹] | Ki/KI or kobs/[I], LHE (human leukocyte elastase; TABLE 1, inactivation phase) [M⁻¹ s⁻¹] | kinact/KI (bovine α-chymotrypsin; TABLE 1, 2-pyridyl esters) [M⁻¹ s⁻¹] | Ki/KI or kobs/[I], Thrombin (human thrombin; TABLE 1, inactivation phase) | further results
O=C(Sc1cccc(Cl)c1)c1cc2cc(CCl)ccc2oc1=O [III2, S-(3-chlorophenyl) 6-chloromethyl-2-oxo-2H-1-benzopyran-3-carbothioate] | 194 to 195 °C |  |  |  |  |  |  |  | kinact/KI (human leukocyte elastase; [1]): < 200 M⁻¹ s⁻¹; kinact/KI (bovine α-chymotrypsin; [2]): 730000 M⁻¹ s⁻¹; Ki/KI or kobs/[I], Thrombin (human thrombin; [3]): — N.I.
O=C(Oc1cncc(Cl)c1)c1cc2ccccc2oc1=O [Ia3, 5-chloro-3-pyridyl 2-oxo-2H-1-benzopyran-3-carboxylate] |  | 32800 | N.I.^a N.I. N.I. N.I. N.I. N.I. N.I. N.I. | N.I. N.I. N.I. N.I. N.I. N.I. N.I. N.I. — |  |  |  |  | Ki/KI or kobs/[I], Trypsin (bovine trypsin; TABLE 3): N.I. N.I. N.I. N.I. N.I. N.I. N.I. — —
Cc1ccc2oc(=O)c(C(=O)Oc3cncc(Cl)c3)cc2c1 [Ib2, 5-chloro-3-pyridyl 6-methyl-2-oxo-2H-1-benzopyran-3-carboxylate] | 215 to 217 °C | 32500 | N.I.^a N.I. N.I. N.I. N.I. N.I. N.I. N.I. | N.I. N.I. N.I. N.I. N.I. N.I. N.I. N.I. — |  |  |  |  | Ki/KI or kobs/[I], LHE (human leukocyte elastase; TABLE 3, inactivation phase): 32500 M⁻¹ s⁻¹; half-reactivation time for the enzyme (human leukocyte elastase; compound 750 nM, HLE 100 nM): 35 min; time during which the inhibition remains at 90% (human leukocyte elastase; compound 750 nM, HLE 100 nM): 80 min; inhibition at 0.75 µM (human leukocyte elastase; compound 750 nM, HLE 100 nM, reached in less than one minute): 90%; Ki/KI or kobs/[I], α-CT (bovine α-chymotrypsin; second table headed TABLE 3): N.I.^a N.I. N.I. N.I. N.I. N.I. N.I. N.I.; Ki/KI or kobs/[I], Thrombin (human thrombin; second table headed TABLE 3): N.I. N.I. N.I. N.I. N.I. N.I. N.I. N.I. —; Ki/KI or kobs/[I], Trypsin (bovine trypsin; TABLE 3): N.I. N.I. N.I. N.I. N.I. N.I. N.I. — —; Ki/KI or kobs/[I], Trypsin (bovine trypsin; second table headed TABLE 3): N.I. N.I. N.I. N.I. N.I. N.I. N.I. — —
O=C(Oc1ccccn1)c1cc2cc(CCl)ccc2oc1=O [Ic′″9, 2-pyridyl 6-chloromethyl-2-oxo-2H-1-benzopyran-3-carboxylate] | 125 to 129 °C |  |  |  | 420 | 420 | 1670 | ~240 M⁻¹ s⁻¹ | kinact/KI (human thrombin; [7]): ~240 M⁻¹ s⁻¹; Ki/KI or kobs/[I], Trypsin (bovine trypsin; TABLE 1, 2-pyridyl esters): N.I.^a — — N.I. N.I.; Ki/KI or kobs/[I], Trypsin (bovine trypsin; TABLE 1): N.I.^a — — N.I. N.I.
Cc1cccc(OC(=O)c2cc3cc(CCl)ccc3oc2=O)n1 [Ic′″10, 6-methyl-2-pyridyl 6-chloromethyl-2-oxo-2H-1-benzopyran-3-carboxylate] | 160 to 162 °C |  |  |  | 200 | 200 | 3300 | N.I. | Ki/KI or kobs/[I], Thrombin (human thrombin; [7]): N.I.; Ki/KI or kobs/[I], Trypsin (bovine trypsin; TABLE 1, 2-pyridyl esters): N.I.^a — — N.I. N.I.; Ki/KI or kobs/[I], Trypsin (bovine trypsin; TABLE 1): N.I.^a — — N.I. N.I.
Cc1ccnc(OC(=O)c2cc3cc(CCl)ccc3oc2=O)c1 [Ic′″11, 4-methyl-2-pyridyl 6-chloromethyl-2-oxo-2H-1-benzopyran-3-carboxylate] | 152 to 154 °C |  |  |  | 300 | 300 | 5950 | 3900 M⁻¹ s⁻¹ | kinact/KI (human thrombin; [7]): 3900 M⁻¹ s⁻¹; Ki/KI or kobs/[I], Trypsin (bovine trypsin; TABLE 1, 2-pyridyl esters): N.I.^a — — N.I. N.I.; Ki/KI or kobs/[I], Trypsin (bovine trypsin; TABLE 1): N.I.^a — — N.I. N.I.
O=C(Oc1cccc(Cl)n1)c1cc2cc(CCl)ccc2oc1=O [Ic′″12, 6-chloro-2-pyridyl 6-chloromethyl-2-oxo-2H-1-benzopyran-3-carboxylate] | 172 to 173 °C |  |  |  | 26000 | 26000 | 107000 | 7200 M⁻¹ s⁻¹ | kinact/KI (human thrombin; [7]): 7200 M⁻¹ s⁻¹
O=C(Oc1ccc(Cl)cn1)c1cc2cc(CCl)ccc2oc1=O [Ic′″13, 5-chloro-2-pyridyl 6-chloromethyl-2-oxo-2H-1-benzopyran-3-carboxylate] | 171 to 172 °C |  |  |  | 110 | 110 | ~2500 | N.I. | Ki/KI or kobs/[I], Thrombin (human thrombin; [7]): N.I.
CC(=O)OCc1ccc2oc(=O)c(C(=O)Oc3cccc(Cl)c3)cc2c1 [Id2, 3-chlorophenyl 6-acetoxymethyl-2-oxo-2H-1-benzopyran-3-carboxylate] |  |  |  |  |  |  |  |  | kinact/KI (human leukocyte elastase; [1]): 1440 M⁻¹ s⁻¹; kinact/KI (bovine α-chymotrypsin; [2]): 20000 M⁻¹ s⁻¹; kinact/KI (human thrombin; [3]): 580 M⁻¹ s⁻¹
CC(C)(C)C(=O)OCc1ccc2oc(=O)c(C(=O)Oc3cncc(Cl)c3)cc2c1 [Id8, 5-chloro-3-pyridyl 6-trimethylacetoxymethyl-2-oxo-2H-1-benzopyran-3-carboxylate] |  | 95500 | N.I.^a N.I. N.I. N.I. N.I. N.I. N.I. N.I. | N.I. N.I. N.I. N.I. N.I. N.I. N.I. N.I. — |  |  |  |  | Ki/KI or kobs/[I], Trypsin (bovine trypsin; TABLE 3): N.I. N.I. N.I. N.I. N.I. N.I. N.I. — —
Cl.NCc1ccc2oc(=O)c(C(=O)Oc3cncc(Cl)c3)cc2c1 [If3, 5-chloro-3-pyridyl 6-aminomethyl-2-oxo-2H-1-benzopyran-3-carboxylate hydrochloride] | 230 °C (dec.) | 9100 | N.I.^a N.I. N.I. N.I. N.I. N.I. N.I. N.I. | N.I. N.I. N.I. N.I. N.I. N.I. N.I. N.I. — |  |  |  |  | Ki/KI or kobs/[I], LHE (human leukocyte elastase; TABLE 3, inactivation phase): 9100 M⁻¹ s⁻¹; Ki/KI or kobs/[I], α-CT (bovine α-chymotrypsin; second table headed TABLE 3): N.I.^a N.I. N.I. N.I. N.I. N.I. N.I. N.I.; Ki/KI or kobs/[I], Thrombin (human thrombin; second table headed TABLE 3): N.I. N.I. N.I. N.I. N.I. N.I. N.I. N.I. —

From patent US6355658B1, “Coumarin derivatives, methods of preparation and application as medicines” (Centre National de la Recherche Scientifique, priority 1997, dated 2002)
